Measured values as given in patent US12077503B2, “Substituted cyclic amides and their use as herbicides” (FMC CORPORATION, priority 2015, dated 2024).

Assays:
Assay type in all cases: in vivo
[1] = test system: Kochia (Kochia scoparia); assay: Test A preemergence; settings: Bassia scoparia, pre-emergence, 240 h
Outline: (§1)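 Preemergence directed soil spray on seeded pots, or postemergence application to plants 2–10 cm, one- to two-leaf. Solvent mixture non-phytotoxic, with surfactant. Scored ~10 d later, visually, 0–100 vs untreated.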

[2] = test system: barnyardgrass (Echinochloa crus-galli); assay: Test A preemergence; settings: Echinochloa crus-galli, pre-emergence, 240 h
Outline: as §1

[3] = test system: giant foxtail (Setaria faberii); assay: Test A preemergence; settings: Setaria faberi, pre-emergence, 240 h
Outline: as §1

[4] = test system: pigweed (Amaranthus retroflexus); assay: Test A preemergence; settings: Amaranthus retroflexus, pre-emergence, 240 h
[5] = test system: ragweed (common ragweed, Ambrosia elatior); assay: Test A preemergence; settings: Ambrosia artemisiifolia, pre-emergence, 240 h
Outline: as §1

[6] = test system: ryegrass, Italian (Italian ryegrass, Lolium multiflorum); assay: Test A preemergence; settings: Lolium multiflorum, pre-emergence, 240 h
Outline: as §1

[7] = test system: Galium (catchweed bedstraw, Galium aparine); assay: Test A postemergence; settings: Galium, post-emergence, 240 h, read-out: Plant response rating, Galium
Outline: as §1

[8] = test system: Kochia (Kochia scoparia); assay: Test A postemergence; settings: Bassia scoparia, post-emergence, 240 h, read-out: Plant response rating, Kochia
Outline: as §1

[9] = test system: barnyardgrass (Echinochloa crus-galli); assay: Test A postemergence; settings: Echinochloa crus-galli, post-emergence, 240 h, read-out: Plant response rating, Barnyardgrass
Outline: as §1

[10] = test system: corn (Zea mays); assay: Test A postemergence; settings: Zea mays, post-emergence, 240 h
Outline: as §1

[11] = test system: giant foxtail (Setaria faberii); assay: Test A postemergence; settings: Setaria faberi, post-emergence, 240 h, read-out: Plant response rating, Foxtail, Giant
Outline: as §1

[12] = test system: pigweed (Amaranthus retroflexus); assay: Test A postemergence; settings: Amaranthus retroflexus, post-emergence, 240 h, read-out: Plant response rating, Pigweed
Outline: as §1

[13] = test system: ragweed (common ragweed, Ambrosia elatior); assay: Test A postemergence; settings: Ambrosia artemisiifolia, post-emergence, 240 h, read-out: Plant response rating, Ragweed
Outline: as §1

[14] = test system: ryegrass, Italian (Italian ryegrass, Lolium multiflorum); assay: Test A postemergence; settings: Lolium multiflorum, post-emergence, 240 h, read-out: Plant response rating, Ryegrass, Italian
Outline: as §1

[15] = test system: wheat (Triticum aestivum); assay: Test A postemergence; settings: Triticum aestivum, post-emergence, 240 h, read-out: Plant response rating, Wheat
Outline: as §1

[16] = 125 g ai/ha, Postemergence, visual injury after approximately 10 d, 0 to 100 scale where 0 is no effect and 100 is complete control
[17] = 500 g ai/ha, postemergence, visual injury, 0 to 100 scale (0 no effect, 100 complete control), approx. 10 d

CC(=O)Oc1ccc(F)c(NC(=O)[C@H]2C(=O)N(C)C[C@@H]2c2cc(F)cc(F)c2)c1 [Compound 1019]
0%: pest or weed control at 125 g/ha ([1]; 125 g ai/ha, Preemergence, visual injury rating after approximately 10 d, read-out: Kochia plant response rating (0 to 100 scale, 0 is no effect, 100 is complete control)) | pest or weed control at 500 g/ha ([1]; 500 g ai/ha, preemergence, visual injury rating about 10 d after treatment, 0 to 100 scale (0 no effect, 100 complete control), read-out: Kochia plant response rating) | pest or weed control at 125 g/ha ([2]; 125 g ai/ha, Preemergence, visual injury rating after approximately 10 d, read-out: Barnyardgrass plant response rating (0 to 100 scale, 0 is no effect, 100 is complete control)) | pest or weed control at 500 g/ha ([2]; 500 g ai/ha, preemergence, visual injury rating about 10 d after treatment, 0 to 100 scale (0 no effect, 100 complete control), read-out: Barnyardgrass plant response rating) | pest or weed control at 125 g/ha ([3]; 125 g ai/ha, Preemergence, visual injury rating after approximately 10 d, read-out: Foxtail, Giant plant response rating (0 to 100 scale, 0 is no effect, 100 is complete control)) | pest or weed control at 500 g/ha ([3]; 500 g ai/ha, preemergence, visual injury rating about 10 d after treatment, 0 to 100 scale (0 no effect, 100 complete control), read-out: Foxtail, Giant plant response rating) | pest or weed control at 125 g/ha ([4]; 125 g ai/ha, Preemergence, visual injury rating after approximately 10 d, read-out: Pigweed plant response rating (0 to 100 scale, 0 is no effect, 100 is complete control)) | pest or weed control at 500 g/ha ([4]; 500 g ai/ha, preemergence, visual injury rating about 10 d after treatment, 0 to 100 scale (0 no effect, 100 complete control), read-out: Pigweed plant response rating) | pest or weed control at 125 g/ha ([5]; 125 g ai/ha, Preemergence, visual injury rating after approximately 10 d, read-out: Ragweed plant response rating (0 to 100 scale, 0 is no effect, 100 is complete control)) | pest or weed control at 500 g/ha ([5]; 500 g ai/ha, preemergence, visual injury rating about 10 d after treatment, 0 to 100 scale (0 no effect, 100 complete control), read-out: Ragweed plant response rating) | pest or weed control at 125 g/ha ([6]; 125 g ai/ha, Preemergence, visual injury rating after approximately 10 d, read-out: Ryegrass, Italian plant response rating (0 to 100 scale, 0 is no effect, 100 is complete control)) | pest or weed control at 500 g/ha ([6]; 500 g ai/ha, preemergence, visual injury rating about 10 d after treatment, 0 to 100 scale (0 no effect, 100 complete control), read-out: Ryegrass, Italian plant response rating) | pest or weed control at 125 g/ha [7, 16] | pest or weed control at 500 g/ha [7, 17] | pest or weed control at 125 g/ha [8, 16] | pest or weed control at 500 g/ha [8, 17] | pest or weed control at 125 g/ha [9, 16] | pest or weed control at 500 g/ha [9, 17] | Corn plant response rating (crop injury, 0 = no effect, 100 = complete kill) at 125 g/ha [10, 16] | Corn plant response rating (crop injury, 0 = no effect, 100 = complete kill) at 500 g/ha [10, 17] | pest or weed control at 125 g/ha [11, 16] | pest or weed control at 500 g/ha [11, 17] | pest or weed control at 125 g/ha [12, 16] | pest or weed control at 500 g/ha [12, 17] | pest or weed control at 125 g/ha [13, 16] | pest or weed control at 500 g/ha [13, 17] | pest or weed control at 125 g/ha [14, 16] | pest or weed control at 500 g/ha [14, 17] | plant injury at 125 g/ha [15, 16] | plant injury at 500 g/ha [15, 17]
